{
  "source": "patent US9958439B2",
  "about": "“Carbohydrate detection” (RICHTER LIFE SCIENCE DEVELOPMENT AB, priority 2012, dated 2018)",
  "key": {"[1]": {"conditions": "for RFU change (Correlation analysis) / RFU change (Signal deviation with increasing [Carbohydrate]) / λmax change: 3 μM probe; for RFU change (Correlation analysis): probe-specific excitation λ, emission 545 nm; for RFU change (Signal deviation with increasing [Carbohydrate]) / λmax change: spectral analysis, Excitation 300-500, Emission 545; for carbohydrate can be detected and/or differentiated by the LCO: conclusion from change in signal magnitude and/or shift in λmax; for Gradient Parameters (gradient of regression line) / Linear relationship / Quality of Gradient: linear regression", "procedure,_shortened": "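Each LCO probe at 3 μM was added to two-fold serial dilutions of carbohydrate in dH2O (10–0.039 mg/ml for β-1,3-glucan, cellulose, chitin; 5–0.019 mg/ml for the others), run in triplicate. Excitation spectra were scanned 300–500 nm with emission at 545 nm. Detection was a reproducible λmax and/or RFU shift versus negative control, with linear regression of RFU against concentration.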"}, "[2]": {"procedure,_shortened": "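LCO probes (3 μM) were added to serial two-fold dilutions of carbohydrate suspensions in dH2O, with excitation scanned 300–500 nm and emission at 545 nm. Detection was a reproducible λmax and/or RFU change versus no-carbohydrate control. RFU was regressed linearly against concentration at the λmax or the lowest-background excitation.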"}, "[3]": {"procedure,_shortened": "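LCO probes at 3 μM mixed with serial two-fold carbohydrate dilutions in water (10–0.039 or 5–0.019 mg/ml), run in triplicate. Excitation scanned 300–500 nm with emission at 545 nm; detection based on reproducible λmax or RFU shift against the no-carbohydrate control, with linear regression of RFU on concentration.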", "remark": "listed apart in the source"}, "[4]": {"conditions": "for RFU change (Correlation analysis): probe-specific excitation λ, emission 545 nm", "procedure,_shortened": "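LCO probes at 3 μM mixed with serial two-fold dilutions of carbohydrate in dH2O (10–0.039 or 5–0.019 mg/ml, depending on carbohydrate), in triplicate. Excitation scanned 300–500 nm or fixed per probe (λmax or lowest background), emission at 545 nm. Detection taken as reproducible λmax/RFU shift vs no-carbohydrate control; RFU regressed linearly on concentration.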"}, "[5]": {"conditions": "for RFU change (Correlation analysis) / RFU change (Signal deviation with increasing [Carbohydrate]) / λmax change: 3 μM probe; for RFU change (Correlation analysis): probe-specific excitation λ, emission 545 nm; for RFU change (Signal deviation with increasing [Carbohydrate]) / λmax change: spectral analysis, Excitation 300-500, Emission 545", "procedure,_shortened": "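LCO probes at 3 μM mixed with serial twofold carbohydrate dilutions in dH2O (10–0.039 or 5–0.019 mg/ml, depending on carbohydrate). Excitation scanned 300–500 nm, emission read at 545 nm; detection defined as reproducible shift in λmax and/or RFU relative to negative control, with linear regression of RFU against concentration.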"}, "[6]": {"procedure,_shortened": "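3 μM of each LCO probe was added to serial two-fold carbohydrate dilutions in water (10–0.039 or 5–0.019 mg/ml). Excitation spectra were scanned 300–500 nm with emission at 545 nm, in triplicate. Detection was defined as a reproducible shift in λmax and/or RFU versus negative control, with linear regression of RFU against concentration.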", "remark": "listed apart in the source"}, "[7]": {"conditions": "β-1,3-glucan concentration vs RFU"}, "[8]": {"conditions": "Sodium alginate 5-0.019 mg/ml, 3 μM probe, spectral analysis, Excitation 300-500, Emission 545"}, "[9]": {"conditions": "sodium alginate concentration vs RFU, linear regression"}, "[10]": {"conditions": "glucose concentration vs RFU, linear regression"}, "[11]": {"conditions": "Cellulobiose 5-0.019 mg/ml, 3 μM probe, spectral analysis, Excitation 300-500, Emission 545"}, "[12]": {"conditions": "amylose concentration vs RFU, linear regression"}, "[13]": {"conditions": "cellulobiose concentration vs RFU, linear regression"}, "[14]": {"conditions": "glycogen concentration vs RFU, linear regression"}, "[15]": {"conditions": "heparin concentration vs RFU, linear regression"}, "[16]": {"conditions": "Chondroitin Sulfate A 5-0.019 mg/ml, 3 μM probe, spectral analysis, Excitation 300-500, Emission 545"}, "[17]": {"conditions": "Chondroitin Sulfate A concentration vs RFU, linear regression"}},
  "note": "Like-named read-outs stand apart in the source and are kept apart here.",
  "data": [
    {"molecule": "Cl.Cl.NCCc1cc(-c2cccs2)sc1-c1ccc(-c2sc(-c3cccs3)cc2CCN)s1", "note": "[pHTEA, penta Hydrogen Thiophene Ethanol Amine]", "values": [
      {"measurement": "RFU change (Correlation analysis)", "setting": "[1]; Cellulose 10-[…]", "value": "Increase"},
      {"measurement": "RFU change (Signal deviation with increasing [Carbohydrate])", "setting": "[1]; Cellulose 10-[…]", "value": "Increase"},
      {"measurement": "λmax change", "setting": "[1]; Cellulose 10-[…]", "value": "Redshift"},
      {"measurement": "carbohydrate can be detected and/or differentiated by the LCO", "setting": "[1]; Cellulose", "value": "can be detected and/or differentiated"},
      {"measurement": "RFU change (Correlation analysis)", "setting": "[1]; Chitin 10-[…]", "value": "Decreases"},
      {"measurement": "RFU change (Signal deviation with increasing [Carbohydrate])", "setting": "[1]; Chitin 10-[…]", "value": "Decrease"},
      {"measurement": "λmax change", "setting": "[1]; Chitin 10-[…]", "value": "Redshift"},
      {"measurement": "carbohydrate can be detected and/or differentiated by the LCO", "setting": "[1]; Chitin", "value": "can be detected and/or differentiated"},
      {"measurement": "Gradient Parameters (gradient of regression line)", "setting": "[1]; cellulose concentration vs RFU", "value": "6001 ± 1187"},
      {"measurement": "Linear relationship", "setting": "[1]; cellulose concentration vs RFU", "value": "Significant"},
      {"measurement": "Quality of Gradient", "setting": "[1]; cellulose concentration vs RFU", "value": "Positive"},
      {"measurement": "Gradient Parameters (gradient of regression line)", "setting": "[1]; chitin concentration vs RFU", "value": "−9030 ± 110.1"},
      {"measurement": "Linear relationship", "setting": "[1]; chitin concentration vs RFU", "value": "Significant"},
      {"measurement": "Quality of Gradient", "setting": "[1]; chitin concentration vs RFU", "value": "Negative"},
      {"measurement": "Sensitivity", "setting": "[1]; to cellulose", "value": "Yes"},
      {"measurement": "Sensitivity", "setting": "[1]; to chitin", "value": "Yes"},
      {"measurement": "Sensitivity", "setting": "[1]; to β-1,3-glucan", "value": "Yes"},
      {"measurement": "carbohydrate can be detected and/or differentiated by the LCO", "setting": "[1]; β-1,3-Glucan", "value": "can be detected and/or differentiated"},
      {"measurement": "RFU change (Correlation analysis)", "setting": "[1]; β-1,3-glucan 10-[…]", "value": "Decrease"},
      {"measurement": "RFU change (Signal deviation with increasing [Carbohydrate])", "setting": "[1]; β-1,3-glucan 10-[…]", "value": "Decrease"},
      {"measurement": "λmax change", "setting": "[1]; β-1,3-glucan 10-[…]", "value": "Redshift"},
      {"measurement": "Gradient Parameters (gradient of regression line)", "setting": "[1]; [7]", "value": "−664.6 ± 206.2"},
      {"measurement": "Quality of Gradient", "setting": "[1]; [7]", "value": "Negative"},
      {"measurement": "RFU change (Correlation analysis)", "setting": "[2]; Sodium alginate 5-0.019 mg/ml, 3 μM probe, probe-specific excitation λ, emission 545 nm", "value": "Increases"},
      {"measurement": "RFU change (Signal deviation with increasing [Carbohydrate])", "setting": "[2]; [8]", "value": "Increases"},
      {"measurement": "λmax change", "setting": "[2]; [8]", "value": "Redshift"},
      {"measurement": "carbohydrate can be detected and/or differentiated by the LCO", "setting": "[2]; Sodium alginate, conclusion from change in signal magnitude and/or shift in λmax", "value": "can be detected and/or differentiated"},
      {"measurement": "Gradient Parameters (gradient of regression line)", "setting": "[2]; [9]", "value": "832.4 ± 174.5"},
      {"measurement": "Linear relationship", "setting": "[2]; [9]", "value": "Significant"},
      {"measurement": "Quality of Gradient", "setting": "[2]; [9]", "value": "Positive"},
      {"measurement": "Sensitivity", "setting": "[2]; to sodium alginate", "value": "Yes"},
      {"measurement": "RFU change (Correlation analysis)", "setting": "[3]; Glucose 5-0.019 mg/ml, 3 μM probe, probe-specific excitation λ, emission 545 nm", "value": "Unclear"},
      {"measurement": "RFU change (Signal deviation with increasing [Carbohydrate])", "setting": "[3]; Glucose 5-0.019 mg/ml, 3 μM probe, spectral analysis, Excitation 300-500, Emission 545", "value": "Increases"},
      {"measurement": "Gradient Parameters (gradient of regression line)", "setting": "[3]; [10]", "value": "−67.4 ± 37.2"},
      {"measurement": "Quality of Gradient", "setting": "[3]; [10]", "value": "Horizontal"},
      {"measurement": "Sensitivity", "setting": "[3]; to glucose", "value": "No"},
      {"measurement": "RFU change (Correlation analysis)", "setting": "[4]; Amylose 5-0.019 mg/ml, 3 μM probe", "value": "Decreases"},
      {"measurement": "RFU change (Signal deviation with increasing [Carbohydrate])", "setting": "[4]; Amylose 5-0.019 mg/ml, 3 μM probe, spectral analysis, Excitation 300-500, Emission 545", "value": "Decreases"},
      {"measurement": "carbohydrate can be detected and/or differentiated by the LCO", "setting": "[4]; Amylose, conclusion from change in signal magnitude and/or shift in λmax", "value": "can be detected and/or differentiated"},
      {"measurement": "RFU change (Correlation analysis)", "setting": "[4]; Cellulobiose 5-0.019 mg/ml, 3 μM probe", "value": "Unclear"},
      {"measurement": "RFU change (Signal deviation with increasing [Carbohydrate])", "setting": "[4]; [11]", "value": "Unclear"},
      {"measurement": "λmax change", "setting": "[4]; [11]", "value": "No change"},
      {"measurement": "Gradient Parameters (gradient of regression line)", "setting": "[4]; [12]", "value": "−6680 ± 1421"},
      {"measurement": "Linear relationship", "setting": "[4]; [12]", "value": "Significant"},
      {"measurement": "Quality of Gradient", "setting": "[4]; [12]", "value": "Negative"},
      {"measurement": "Gradient Parameters (gradient of regression line)", "setting": "[4]; [13]", "value": "39.5 ± 66.5"},
      {"measurement": "Quality of Gradient", "setting": "[4]; [13]", "value": "Horizontal"},
      {"measurement": "Sensitivity", "setting": "[4]; to amylose", "value": "Yes"},
      {"measurement": "Sensitivity", "setting": "[4]; to cellulobiose", "value": "No"},
      {"measurement": "RFU change (Correlation analysis)", "setting": "[5]; Glycogen 5-0.019 mg/ml", "value": "Decreases"},
      {"measurement": "RFU change (Signal deviation with increasing [Carbohydrate])", "setting": "[5]; Glycogen 5-0.019 mg/ml", "value": "Decreases"},
      {"measurement": "λmax change", "setting": "[5]; Glycogen 5-0.019 mg/ml", "value": "Redshift"},
      {"measurement": "carbohydrate can be detected and/or differentiated by the LCO", "setting": "[5]; Glycogen, conclusion from change in signal magnitude and/or shift in λmax", "value": "can be detected and/or differentiated"},
      {"measurement": "RFU change (Correlation analysis)", "setting": "[5]; Heparin 5-0.019 mg/ml", "value": "Unclear"},
      {"measurement": "RFU change (Signal deviation with increasing [Carbohydrate])", "setting": "[5]; Heparin 5-0.019 mg/ml", "value": "Decreases"},
      {"measurement": "λmax change", "setting": "[5]; Heparin 5-0.019 mg/ml", "value": "Redshift"},
      {"measurement": "Gradient Parameters (gradient of regression line)", "setting": "[5]; [14]", "value": "−451 ± 328"},
      {"measurement": "Quality of Gradient", "setting": "[5]; [14]", "value": "Negative"},
      {"measurement": "Gradient Parameters (gradient of regression line)", "setting": "[5]; [15]", "value": "−109.3 ± 248"},
      {"measurement": "Linear relationship", "setting": "[5]; [15]", "value": "Not Significant"},
      {"measurement": "Quality of Gradient", "setting": "[5]; [15]", "value": "Horizontal"},
      {"measurement": "Sensitivity", "setting": "[5]; to glycogen", "value": "Yes"},
      {"measurement": "Sensitivity", "setting": "[5]; to heparin", "value": "No"},
      {"measurement": "RFU change (Correlation analysis)", "setting": "[6]; Chondroitin Sulfate A 5-0.019 mg/ml, 3 μM probe, probe-specific excitation λ, emission 545 nm", "value": "Increases"},
      {"measurement": "RFU change (Signal deviation with increasing [Carbohydrate])", "setting": "[6]; [16]", "value": "Increases"},
      {"measurement": "λmax change", "setting": "[6]; [16]", "value": "Redshift"},
      {"measurement": "Gradient Parameters (gradient of regression line)", "setting": "[6]; [17]", "value": "5989 ± 727"},
      {"measurement": "Linear relationship", "setting": "[6]; [17]", "value": "Significant"},
      {"measurement": "Quality of Gradient", "setting": "[6]; [17]", "value": "Positive"},
      {"measurement": "carbohydrate can be detected and/or differentiated by the LCO", "setting": "[6]; Chondroitin sulfate A, conclusion from change in signal magnitude and/or shift in λmax", "value": "can be detected and/or differentiated"},
      {"measurement": "Sensitivity", "setting": "[6]; to Chondroitin Sulfate A", "value": "Yes"}
    ]}
  ]
}
